Patent publication US10654822B2, “Composition and rodenticidal bait comprising flocoumafen, and process for controlling target rodent pests” (priority 2015, dated 2020)
Like-named read-outs stand apart in the source and are kept apart here.

Assay type: in vivo, Sprague-Dawley rats
Details: mean of three rats, liver
Protocol: The configurational stereoisomers of flocoumafen are separated by high-pressure liquid chromatography using a LUX® Cellulose-4 chiral column (00F-4490-B0, Phenomenex, Le Pecq, France) as stationary phase and a mixture formed from acetonitrile (A) and water comprising 0.1% by volume of formic acid (B), with an A/B volume ratio of 92/8, as mobile phase with a flow rate of the liquid mobile phase in the chromatography column of 0.25 mL/minute. 1 μL of extract comprising flocoumafen at a concentration of 1 μg/mL of acetonitrile is injected. Detection is performed by tandem mass spectrometry (MS/MS) in negative electrospray ionization (ESI) mode. The temperature of the nebulizer gas is 350° C. and its flow rate is 8 L/minute. The pressure of the nebulizer gas is brought to 2700 hPa. In particular, the MRM (“Multiple Reaction Monitoring”) transitions m/z 541.1→382.1 and m/z 541.1→161, corresponding to the flocoumafen signal, are analysed.
Extraction of Flocoumafen from the Liver of Rats Tube-Fed with Flocoumafen
About 0.525 g (±0.025 g) of rat liver is weighed out accurately and placed in a 50 mL polypropylene tube. 10 mL of acetone are added and the suspension is homogenized using an Ultra-Turrax® homogenizer/disperser for a time of about 30 seconds. The homogenizer/disperser shaft is rinsed with hot water and then twice with 20 mL of acetone in a polypropylene tube. The homogenate is centrifuged for 5 minutes at a centrifugation speed of 3000 rpm (revolutions per minute). The supernatant is collected and transferred into a test tube. The sample is subjected to evaporation under a stream of nitrogen (N2) at a temperature of 40° C. so as to form a dry extract.
1 mL of acetonitrile is added to the tube containing the dry extract so as to dissolve it. The acetonitrile solution is washed twice successively with 1 mL of hexane. The lipid-free extract is dried under a stream of nitrogen (N2) at a temperature of 40° C. and is then taken up in 0.5 mL of methanol and dissolved by vortex stirring. 0.5 mL of ultra-pure (Milli-Q) water is then added. The sample is vortex-homogenized.
1 mL of dichloromethane (CH2Ct2), then 1 mL of methanol (CH3OH), then 1 mL of ultra-pure (Milli-Q) water are passed through an Oasis HLB 1 cc cartridge (WAT094225, Waters). The lipid-free liver extract (1 mL MeOH/Milli-Q H2O) containing flocoumafen is then loaded onto the top of the cartridge beforehand. The liver extract penetrates through the cartridge by gravity on contact with the solid phase of the cartridge. 1 mL of washing solution formed from methanol (CH3OH) and ultra-pure water (H2O) in a 90/10 volume proportion is loaded onto the top of the cartridge. The cartridge is dried by suction under vacuum connected to the bottom of the cartridge. 1 mL of eluting solution formed from dichloromethane (CH2Cl2) and methanol (CH3OH) in a 90/10 volume proportion is then loaded onto the top of the cartridge and an eluate comprising flocoumafen is collected at the bottom of the cartridge. The solvent of the eluate is evaporated off under a stream of nitrogen (N2) at a temperature of 40° C. The sample is taken up in 0.5 mL of acetonitrile (NC—CH3) and the acetonitrile solution containing flocoumafen is filtered through a 0.2 μm porosity filter.
Hepatic Persistence of the Configurational Stereoisomers (E1, E2, E3 and E4) of Flocoumafen in Rats
A solution comprising flocoumafen in a mixture of vegetable oil and 5% of DMSO so that the amount of flocoumafen ingested by each rat is about 2.3 mg per kilogram of rat is administered orally (per os) to 8-week-old male and female laboratory rats (Sprague-Dawley rats, Charles River, Saint-Germain-sur-l'Arbresle, France) weighing between 180 and 200 g. The tube-fed rats are treated daily by subcutaneous administration of a dose of vitamin K1 at a rate of 1 U per rat so as to keep the rats alive throughout the experiment. […]

[1] = female rats, D+1 after oral tube-feeding of flocoumafen about 2.3 mg/kg (mixture of 4 stereoisomers)
[2] = female rats, D+3 after oral tube-feeding of flocoumafen about 2.3 mg/kg (mixture of 4 stereoisomers)
[3] = female rats, D+7 after oral tube-feeding of flocoumafen about 2.3 mg/kg (mixture of 4 stereoisomers)
[4] = male rats, D+1 after oral tube-feeding of flocoumafen about 2.3 mg/kg (mixture of 4 stereoisomers)
[5] = male rats, D+3 after oral tube-feeding of flocoumafen about 2.3 mg/kg (mixture of 4 stereoisomers)
[6] = male rats, D+7 after oral tube-feeding of flocoumafen about 2.3 mg/kg (mixture of 4 stereoisomers)

SMILES: O=c1oc2ccccc2c(O)c1C1CC(c2ccc(OCc3ccc(C(F)(F)F)cc3)cc2)Cc2ccccc21 (single isomer, unassigned) [Enantiomer E2, flocoumafen]
- Hepatic concentration [1]: 5396 ng/g
- Hepatic concentration [2]: 2522 ng/g
- Hepatic concentration [3]: 469 ng/g
- Hepatic concentration [4]: 3904 ng/g
- Hepatic concentration [5]: 1962 ng/g
- Hepatic concentration [6]: 319 ng/g

SMILES: O=c1oc2ccccc2c(O)c1C1CC(c2ccc(OCc3ccc(C(F)(F)F)cc3)cc2)Cc2ccccc21 (single isomer, unassigned) [Enantiomer E1, flocoumafen]
- Hepatic concentration [1]: 4585 ng/g
- Hepatic concentration [2]: 2692 ng/g
- Hepatic concentration [3]: 1196 ng/g
- Hepatic concentration [4]: 196 ng/g
- Hepatic concentration [5]: 47 ng/g
- Hepatic concentration [6]: 0 ng/g

SMILES: O=c1oc2ccccc2c(O)c1C1CC(c2ccc(OCc3ccc(C(F)(F)F)cc3)cc2)Cc2ccccc21 (single isomer, unassigned) [Enantiomer E4, flocoumafen]
- Hepatic concentration [1]: 10342 ng/g
- Hepatic concentration [2]: 7765 ng/g
- Hepatic concentration [3]: 5054 ng/g
- Hepatic concentration [4]: 8143 ng/g
- Hepatic concentration [5]: 9906 ng/g
- Hepatic concentration [6]: 2623 ng/g

SMILES: O=c1oc2ccccc2c(O)c1C1CC(c2ccc(OCc3ccc(C(F)(F)F)cc3)cc2)Cc2ccccc21 (single isomer, unassigned) [Enantiomer E3, flocoumafen]
- Hepatic concentration [1]: 5478 ng/g
- Hepatic concentration [2]: 2734 ng/g
- Hepatic concentration [3]: 1228 ng/g
- Hepatic concentration [4]: 3301 ng/g
- Hepatic concentration [5]: 1862 ng/g
- Hepatic concentration [6]: 647 ng/g
